One data set has as its target rat liver HDAC. The data set is described as follows: HDAC activity assay with partially purified rat liver HDAC enzyme (MAL substrate). The class given is biochemical. The procedure: The activity of the compounds as inhibitors of histone deacetylase was investigated using a modified assay based on a rapid in vitro HDAC activity assay (based on the deacetylation of an Ω-acetylated lysine (MAL)) and described by Hoffman et al. in Nucl. Acids. […] The reaction was terminated with 100 μl acetonitrile, and MAL and the deacetylated produce (ML) were determined in the supernatant. […] MAL and ML peak heights were used to derive the percentage MAL in the mixture as the ration of MAL: MAL+ML.

For data set [1], the system named is T1, whole cell HDAC activity (CEM cells).
T1 construct: other: intact CEM cells
The data set is described as follows: Whole cell HDAC activity assay in intact CEM cells (MAL substrate). The class given is cell-based. The procedure:
The fluorescent substrate MAL has been used in a novel assay established and validated by Dr. Joel for the determination of HDAC activity in intact cells.
1×10^6 CEM cells in 1 ml medium were exposed to inhibitors at 6 concentrations for 60 minutes, after which MAL at 20 μg/ml (5 μg/mL final concentration) was added for a further 30 minutes, all at 37° C. Cells were then rapidly washed at 4° C., lysed by sonication, the reaction stopped with acetonitrile, and MAL and the deacetylated product determined in the supernatant by rapid HPLC.
Chromatographic separation of MAL and ML was carried out using a 15 cm Apex ODS 5 μM column with acetonitrile/distilled water (40:60), 2% trifluoracetic acid (TFA) v/v mobile phase at a flow rate of 1.2 ml/minute.
The activity of each inhibitor was assessed at a minimum of 5 non-zero concentrations. MAL and ML peak heights were used to derive the percentage MAL in the mixture as the ration of MAL: MAL+ML.

For the next data set, the system named is CEM cells. The data set is described as follows: Percentage viability in CEM cells (3-day exposure). The class given is cell-based.
For data set [2], the system named is whole cell HDAC activity (CEM cells). The experiment in a line: Whole cell HDAC assay modified for 24-hour incubation with CEM cells as indicator of in vitro compound stability.
Where [3] appears, read: rat liver HDAC preparation, 60 minutes at 37° C., read-out: HDAC inhibitory activity (IC50) μM Liver preparation.
The mark [4] stands for this setting: intact CEM cells, inhibitor 60 minutes then MAL 30 minutes, read-out: HDAC inhibitory activity (IC50) μM CEM cells.
[5] abbreviates: Homo sapiens, CCRF-CEM, 72 h, Table 2, CEM cells, 3-day exposure, read-out: % Viability (IC50).
[6] abbreviates: CEM cells (Table 2), read-out: HDAC inhibitory activity CEM cells (IC50).
[7] abbreviates: rat liver HDAC, read-out: HDAC activity IC50, rat liver HDAC.
The mark [8] stands for this setting: intact CEM cells, read-out: HDAC activity IC50, CEM cells.

Read-outs that look alike come from different tables or passages of the source.

Regarding `O=C(/C=C/C=C/CS(=O)(=O)c1ccccc1)NO` [CM4, 6-benzenesulfonyl-hexa-2,4-dienoic acid hydroxamide], the IC50 at rat liver HDAC (setting [3]) came to 0.8 ± 0.3 µM; in data set [1] (setting [4]), 3.3 ± 1.3 µM.
In the case of `O=C(/C=C/C=C/C[S+]([O-])c1ccc(Cl)cc1)NO` (stereo not drawn) [UCL 2002, 6-(4-Chlorobenzenesulfinyl)-hexa-2,4-dienoic acid hydroxyamide], the IC50 on rat liver HDAC (purified liver HDAC (Table 2), read-out: HDAC inhibitory activity Purified liver (IC50)) was 0.31 µM; at rat liver HDAC (setting [3]) it was 0.4 ± 0.1 µM; with CEM cells (setting [5]), 1.57 µM; in data set [1] (setting [6]), 1.58 µM; in data set [1] (setting [4]), 1.2 ± 0.4 µM. Moreover, in data set [2], the “decrease in HDAC inhibitory activity between 1 and 24 hours incubation” value was “no decrease in activity”.
Regarding `O=C(CCCCC[S+]([O-])c1ccc(Cl)cc1)NO` (stereo not drawn) [UCL 2007, 6-(4-Chloro-benzenesulfinyl)-hexanoic acid hydroxyamide], the IC50 in the data set on CEM cells (setting [5]) was determined as 2.56 µM; in data set [1] (setting [6]), 1.28 µM. Moreover, in data set [2], the “decrease in HDAC inhibitory activity between 1 and 24 hours incubation” value is on record as “no decrease in activity”.
In the case of `CC=CC=CC(=O)NO` [hexa-2,4-dienic acid hydroxamide, reference compound], the IC50 on rat liver HDAC (setting [7]) was determined as 0.8 ± 0.7 µM; in data set [1] (setting [8]), 47 ± 17 µM.
Consider `CC(/C=C/C(=O)NO)=C\[C@@H](C)C(=O)c1ccc(N(C)C)cc1` [trichostatin, Trichostatin A, reference compound], for which, in the data set with CEM cells (Homo sapiens, CCRF-CEM, 72 h, read-out: % viability (IC50) μM), the IC50 turned out to be 0.082 ± 0.011 µM. In addition, in data set [2], the “decrease in HDAC inhibitory activity between 1 and 24 hours incubation” value is “greater than 90%”.
Consider “sodium phenyl-butyrohydroxamic acid [NaPBHA, reference compound]”, for which the IC50 worked out at 6.2 ± 2 µM on rat liver HDAC (setting [7]); 138 ± 28 µM in the data set with CEM cells (CEM cells, 3-day exposure, read-out: IC50 values for percentage viability); 158 ± 99 µM in data set [1] (setting [8]).

(Values after patent publication US7683185B2, “Histone deacetylase inhibitors” (Queen Mary & Westfield College, priority 2002, dated 2010).)
